From patent US8426408B2, “Pyrimidine inhibitors of kinases” (AbbVie Inc., priority 2009, dated 2013) come the findings set out here.

Where only a bound is given, the exact number is not on record here.

One assay concerns NCI-H1299 cells. Kind of assay: Induction of polyploidy in H1299. The class given is cell-based, Human. Particulars: NCI-H1299, 48 hours; for EC15: Homo sapiens, read-out: EC15 (concentration of inhibitor necessary to induce polyploidy in 15% of cells). In outline:
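NCI-H1299 cells in RPMI 1640/10% FCS were treated with inhibitor concentrations in duplicate for 48 h at 37 C, then formalin-fixed and Hoechst-stained. Nuclear area was measured by high-content imaging, with polyploid (≥4N) defined as >750 μ^2. EC15 was derived by least-squares fit of log dose-response.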

In another assay the target is T1, Aurora B (Homo sapiens, UniProt Q96GD4).
T1 construct: Active Aurora B enzyme (recombinant residues 1-344)
Kind of assay: Aurora B enzyme inhibition (time-resolved fluorescence, histone H3 peptide). The class given is biochemical. The conditions noted are these: 1 mM ATP. A digest of the protocol:
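Recombinant Aurora B (residues 1-344) with GST-INCENP phosphorylated biotinylated histone H3 (1-21) peptide at 1 mM ATP in HEPES pH 7.4 with MgCl2, orthovanadate and Triton X-100 for 1 h. After EDTA stop, the phosphopeptide was detected by TR-FRET (Eu-cryptate anti-phospho-H3 / SA-APC, 665/615 nm ratio). IC50 from an exponential fit.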

The target of another assay is KDR (Homo sapiens, UniProt P35968). Description: KDR cellular assay (KDR receptor phosphorylation ELISA). The class given is cell-based. Further details: expressed in transfected cells; host or cells: 3T3 (embryonic mouse) cells. Particulars: KDR transfected 3T3 (embryonic mouse) cells, VEGF stimulated; read-out: IC50 inhibition of KDR phosphorylation. A digest of the protocol:
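KDR-transfected mouse 3T3 cells treated 20 min at 37° C with half-log compound dilutions, then stimulated 10 min with VEGF (100 ng/ml solution). Lysates captured on anti-KDR plates; phosphorylation by biotin antibody/streptavidin-HRP ELISA at 450 nm. IC50 by non-linear regression.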
A general note: In an ELISA, binding on a coated surface is turned into a signal by an enzyme label.

T1 sequence (Q96GD4 whole entry, the tested form may be a part): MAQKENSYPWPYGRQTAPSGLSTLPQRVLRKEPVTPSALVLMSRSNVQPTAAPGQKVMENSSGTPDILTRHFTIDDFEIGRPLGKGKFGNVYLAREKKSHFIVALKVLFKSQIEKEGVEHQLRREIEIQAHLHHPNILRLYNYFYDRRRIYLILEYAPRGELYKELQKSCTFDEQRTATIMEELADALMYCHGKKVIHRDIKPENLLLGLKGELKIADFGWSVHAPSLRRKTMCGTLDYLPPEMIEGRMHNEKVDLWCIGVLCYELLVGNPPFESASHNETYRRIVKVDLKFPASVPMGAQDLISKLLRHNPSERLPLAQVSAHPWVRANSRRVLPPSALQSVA
T1 sequence (Q9NQS7 826-918 partner limits assumed): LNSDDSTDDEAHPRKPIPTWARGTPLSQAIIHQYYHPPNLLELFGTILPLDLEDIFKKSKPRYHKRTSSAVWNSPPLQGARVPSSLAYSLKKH
KDR, sequence (P35968 20-1356): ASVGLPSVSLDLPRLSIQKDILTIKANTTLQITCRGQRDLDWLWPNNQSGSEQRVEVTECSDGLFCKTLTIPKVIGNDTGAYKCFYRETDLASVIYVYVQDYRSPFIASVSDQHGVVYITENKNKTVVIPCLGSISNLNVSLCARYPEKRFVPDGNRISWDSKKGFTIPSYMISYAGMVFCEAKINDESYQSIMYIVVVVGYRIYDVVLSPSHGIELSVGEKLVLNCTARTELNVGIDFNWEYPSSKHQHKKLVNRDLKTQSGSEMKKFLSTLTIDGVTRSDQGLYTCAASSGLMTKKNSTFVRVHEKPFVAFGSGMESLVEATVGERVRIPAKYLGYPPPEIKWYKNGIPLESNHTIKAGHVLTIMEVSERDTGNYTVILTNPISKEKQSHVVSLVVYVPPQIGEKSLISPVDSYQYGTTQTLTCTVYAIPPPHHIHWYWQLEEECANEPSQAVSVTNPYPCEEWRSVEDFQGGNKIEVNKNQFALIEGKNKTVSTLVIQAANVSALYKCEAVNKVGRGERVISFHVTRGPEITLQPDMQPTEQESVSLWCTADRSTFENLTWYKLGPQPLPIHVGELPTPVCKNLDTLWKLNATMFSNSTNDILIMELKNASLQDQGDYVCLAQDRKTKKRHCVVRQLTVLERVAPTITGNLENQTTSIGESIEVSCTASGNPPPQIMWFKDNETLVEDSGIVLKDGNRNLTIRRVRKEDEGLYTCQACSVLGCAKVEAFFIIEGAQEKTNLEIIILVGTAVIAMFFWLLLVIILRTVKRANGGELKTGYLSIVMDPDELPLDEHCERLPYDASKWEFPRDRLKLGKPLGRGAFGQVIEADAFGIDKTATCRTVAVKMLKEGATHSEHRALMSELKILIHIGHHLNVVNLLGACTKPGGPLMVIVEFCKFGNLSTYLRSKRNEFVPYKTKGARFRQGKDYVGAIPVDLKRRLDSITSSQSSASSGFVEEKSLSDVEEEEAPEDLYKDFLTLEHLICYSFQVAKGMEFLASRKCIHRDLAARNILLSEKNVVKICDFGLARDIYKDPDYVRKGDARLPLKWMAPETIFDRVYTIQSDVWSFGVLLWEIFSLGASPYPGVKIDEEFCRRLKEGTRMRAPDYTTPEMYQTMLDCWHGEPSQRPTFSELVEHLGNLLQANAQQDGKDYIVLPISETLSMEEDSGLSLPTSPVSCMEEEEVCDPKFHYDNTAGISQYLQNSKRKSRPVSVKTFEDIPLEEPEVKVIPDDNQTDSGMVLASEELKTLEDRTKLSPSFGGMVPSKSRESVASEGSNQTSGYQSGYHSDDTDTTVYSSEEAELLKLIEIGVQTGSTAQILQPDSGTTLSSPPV

For the compound `NC(=O)[C@@H]1[C@H](Nc2nc(Nc3cnn(Cc4ccc(Cl)cc4)c3)ncc2Cl)[C@H]2C=C[C@@H]1C2` [Example 162, (1S,2S,3R,4R)-3-[(5-chloro-2-{[1-(4-chlorobenzyl)-1H-pyrazol-4-yl]amino}pyrimidin-4-yl)amino]bicyclo[2.2.1]hept-5-ene-2-carboxamide], in the assay with NCI-H1299 cells, the EC15 is less than 100 nM. For the same compound, the Ki – broadly, the equilibrium dissociation constant of an inhibitor or competing ligand from its target – at Aurora B was less than 100 nM. For the same compound, the IC50 (usually the midpoint of a concentration-inhibition curve) at KDR was less than 100 nM.

In the case of `Cn1cc(Nc2ncc(Cl)c(N[C@H]3[C@@H](C(N)=O)C[C@H]4C[C@@H]3C4(C)C)n2)cn1` [Example 165, (1R,2R,3S,5R)-2-({5-chloro-2-[(1-methyl-1H-pyrazol-4-yl)amino]pyrimidin-4-yl}amino)-6,6-dimethylbicyclo[3.1.1]heptane-3-carboxamide], the EC15 with NCI-H1299 cells is less than 100 nM. For the same compound, the Ki at Aurora B is less than 100 nM. Also, the IC50 on KDR was in the range of 100 to 1000 nM.

Turning to `Cn1cc(Nc2ncc(C(F)(F)F)c(N[C@H]3[C@@H](C(N)=O)C[C@H]4C[C@@H]3C4(C)C)n2)cn1` [Example 167, (1R,2R,3S,5R)-6,6-dimethyl-2-({2-[(1-methyl-1H-pyrazol-4-yl)amino]-5-(trifluoromethyl)pyrimidin-4-yl}amino)bicyclo[3.1.1]heptane-3-carboxamide], in the assay on NCI-H1299 cells, the EC15 was less than 100 nM. The same compound registered a Ki at Aurora B of less than 100 nM. Further, the 50% inhibitory concentration (IC50) at KDR was in the range of 100 to 1000 nM.

For `CCn1cc(Nc2ncc(C(F)(F)F)c(N[C@H]3[C@@H](C(N)=O)C[C@H]4C[C@@H]3C4(C)C)n2)cn1` [Example 168, (1R,2R,3S,5R)-2-({2-[(1-ethyl-1H-pyrazol-4-yl)amino]-5-(trifluoromethyl)pyrimidin-4-yl}amino)-6,6-dimethylbicyclo[3.1.1]heptane-3-carboxamide], the EC15 in the assay with NCI-H1299 cells was less than 100 nM. For the same compound, on Aurora B, the Ki was less than 100 nM. Moreover, on KDR, the IC50 lay within 100 to 1000 nM.

Turning to `Cc1c(Nc2ncc(Cl)c(N[C@H]3[C@@H](C(N)=O)[C@@H]4C=C[C@H]3C4)n2)cnn1C` [Example 169, (1S,2S,3R,4R)-3-({5-chloro-2-[(1,5-dimethyl-1H-pyrazol-4-yl)amino]pyrimidin-4-yl}amino)bicyclo[2.2.1]hept-5-ene-2-carboxamide], the EC15 with NCI-H1299 cells is less than 100 nM. Besides, the Ki at Aurora B is less than 100 nM. Besides, the IC50 at KDR was less than 100 nM.

For `Cc1c(Nc2ncc(Br)c(N[C@H]3[C@@H](C(N)=O)[C@@H]4C=C[C@H]3C4)n2)cnn1C` [Example 170, (1S,2S,3R,4R)-3-({5-bromo-2-[(1,5-dimethyl-1H-pyrazol-4-yl)amino]pyrimidin-4-yl}amino)bicyclo[2.2.1]hept-5-ene-2-carboxamide], the EC15 with NCI-H1299 cells is less than 100 nM. This compound showed a Ki at Aurora B of less than 100 nM. For the same compound, the IC50 on KDR is less than 100 nM.

Take `NC(=O)[C@@H]1[C@H](Nc2nc(Nc3cnn(Cc4ccccc4Cl)c3)ncc2Br)[C@H]2C=C[C@@H]1C2` [Example 171, (1S,2S,3R,4R)-3-[(5-bromo-2-{[1-(2-chlorobenzyl)-1H-pyrazol-4-yl]amino}pyrimidin-4-yl)amino]bicyclo[2.2.1]hept-5-ene-2-carboxamide]: the EC15 in the assay on NCI-H1299 cells is less than 100 nM. Also, the Ki on Aurora B was less than 100 nM. The IC50 at KDR was less than 100 nM.

With `NC(=O)[C@@H]1[C@H](Nc2nc(Nc3cnn(Cc4ccc(Cl)cc4)c3)ncc2Br)[C@H]2C=C[C@@H]1C2` [Example 172, (1S,2S,3R,4R)-3-[(5-bromo-2-{[1-(4-chlorobenzyl)-1H-pyrazol-4-yl]amino}pyrimidin-4-yl)amino]bicyclo[2.2.1]hept-5-ene-2-carboxamide], in the assay with NCI-H1299 cells, the EC15 was less than 100 nM. Also, at Aurora B, the Ki is less than 100 nM. Also, the IC50 at KDR was less than 100 nM.

For the compound `NC(=O)[C@@H]1[C@H](Nc2nc(Nc3cnn(-c4ccccc4)c3)ncc2Br)[C@H]2C=C[C@@H]1C2` [Example 173, (1S,2S,3R,4R)-3-({5-bromo-2-[(1-phenyl-1H-pyrazol-4-yl)amino]pyrimidin-4-yl}amino)bicyclo[2.2.1]hept-5-ene-2-carboxamide], the EC15 with NCI-H1299 cells was less than 100 nM. Moreover, the Ki at Aurora B is less than 100 nM. Also, the IC50 at KDR was less than 100 nM.

As for `NC(=O)[C@@H]1[C@H](Nc2nc(Nc3cnn(-c4ccccc4)c3)ncc2Cl)[C@H]2C=C[C@@H]1C2` [Example 174, (1S,2S,3R,4R)-3-({5-chloro-2-[(1-phenyl-1H-pyrazol-4-yl)amino]pyrimidin-4-yl}amino)bicyclo[2.2.1]hept-5-ene-2-carboxamide], the EC15 in the assay on NCI-H1299 cells is less than 100 nM. The same compound showed a Ki at Aurora B of less than 100 nM. Besides, the IC50 on KDR was less than 100 nM.

In the case of `Cc1cccc(Cn2cc(Nc3ncc(Cl)c(N[C@H]4[C@@H](C(N)=O)[C@@H]5C=C[C@H]4C5)n3)cn2)c1` [Example 178, (1S,2S,3R,4R)-3-[(5-chloro-2-{[1-(3-methylbenzyl)-1H-pyrazol-4-yl]amino}pyrimidin-4-yl)amino]bicyclo[2.2.1]hept-5-ene-2-carboxamide], in the assay on NCI-H1299 cells, the EC15 is less than 100 nM. Further, on Aurora B, the Ki was less than 100 nM. The IC50 on KDR is less than 100 nM.

Take `NC(=O)[C@@H]1[C@H](Nc2nc(Nc3cnn(Cc4ccc5ccccc5c4)c3)ncc2Cl)[C@H]2C=C[C@@H]1C2` [Example 179, (1S,2S,3R,4R)-3-[(5-chloro-2-{[1-(2-naphthylmethyl)-1H-pyrazol-4-yl]amino}pyrimidin-4-yl)amino]bicyclo[2.2.1]hept-5-ene-2-carboxamide]: the EC15 in the assay with NCI-H1299 cells is less than 100 nM. The same compound gave a Ki on Aurora B of less than 100 nM. For the same compound, the IC50 at KDR is less than 100 nM.

For `COc1ccc(Cn2cc(Nc3ncc(Cl)c(N[C@H]4[C@@H](C(N)=O)[C@@H]5C=C[C@H]4C5)n3)cn2)cc1F` [Example 192, (1S,2S,3R,4R)-3-[(5-chloro-2-{[1-(3-fluoro-4-methoxybenzyl)-1H-pyrazol-4-yl]amino}pyrimidin-4-yl)amino]bicyclo[2.2.1]hept-5-ene-2-carboxamide], the EC15 in the assay with NCI-H1299 cells was less than 100 nM. The compound also registered a Ki at Aurora B of less than 100 nM. For the same compound, the IC50 at KDR is less than 100 nM.

On to “(1S,2R)-2-{[5-chloro-2-({1-[2-(morpholin-4-yl)ethyl]-1H-pyrazol-4-yl}amino)pyrimidin-4-yl]amino}cyclopentanecarboxamide and (1R,2S)-2-{[5-chloro-2-({1-[2-(morpholin-4-yl)ethyl]-1H-pyrazol-4-yl}amino)pyrimidin-4-yl]amino}cyclopentanecarboxamide [Example 137]”, for which the “EC15 (concentration of inhibitor necessary to induce polyploidy in 15% of cells)” value with NCI-H1299 cells was “B (“B” represents an EC15 of between 0.1 μM and 1 μM)”. The compound also returned a Ki at Aurora B of less than 100 nM. Also, at KDR, the IC50 is 100 to 1000 nM.
